The record followed here is ChEMBL document CHEMBL1201862, “PubChem BioAssay data set” (2004).

Assay in all cases: DTP human tumour cell line panel, 48 h
Assay [1] deals with A498.
Assay [2] deals with HOP-92.
Assay [3] has as its system OVCAR-4.
The subject of assay [4] is HOP-18.
The subject of assay [5] is SF-539.
Assay [6] has as its system LOX IMVI.
The test system of assay [7] is HL-60.
For assay [8], the system named is U-251.
Assay [9] relates to OVCAR-3.
The test system of assay [10] is IGROV-1.
Assay [11] deals with HCT-116.
Assay [12] relates to SN12C.
Assay [13] has as its system M14.
In assay [14] the test system is OVCAR-5.
The test system of assay [15] is UACC-62.
In assay [16] the test system is SNB-75.
The test system of assay [17] is RXF 393.
The subject of assay [18] is SF-268.
The test system of assay [19] is HT-29.

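Values below derive from 48-hour exposures of cells grown in 96-well plates, with endpoints linearly interpolated between the two concentrations bracketing the appropriate inhibition level. GI50: concentration for 50% inhibition of growth.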 Active and inactive are the calls of the source. No stated cut-off is given here; in the data, active = GI50 up to about 1.1 µM and inactive = higher.

As a reminder, the GI50 is the concentration at which growth is held to half of that of the control.

`O=C(OCCCl)C1OC(n2cc(F)c(=O)[nH]c2=O)CC1O` (centres undefined): the GI50 in assay [1] is > 100 µM (inactive); in [2] it was 57.8 µM (inactive); in assay [3], > 100 µM (inactive); in assay [4], > 100 µM (inactive); in assay [5], > 100 µM (inactive); in assay [6] it was > 100 µM (inactive). Besides, the GI50 in assay [7], in [8], in assay [9], in [10], in assay [11] and in [12] was > 100 µM (inactive) in each case. In addition, the GI50 in [13], in assay [14], in [15], in [16], in [17] and in assay [18] was > 100 µM (inactive) each time. Moreover, the GI50 in assay [19] was > 100 µM (inactive).

Consider `COC(=O)C1CC(c2ccc(Cl)cc2)=NO1` (centres undefined), for which the GI50 in assay [1], in assay [2], in assay [3], in assay [4], in [5] and in assay [7] was > 100 µM (inactive) in each case. Further, the GI50 in [8], in assay [9], in assay [10], in [11], in assay [12] and in assay [13] was > 100 µM (inactive) each time. Further, the GI50 in [14], in [15], in assay [16], in assay [18] and in assay [19] was > 100 µM (inactive) each time.

As for `CN(C)CCNC(=O)c1ccc(C(=O)NCCN(C)C)c2nc3ccccc3cc12`, the GI50 in assay [1] was 1.15 µM (inactive); in assay [2] it was 1.41 µM (inactive); in [3] it was 0.697 µM (active); in [4], 1.95 µM (inactive); in [5] it was 0.378 µM (active); in [6], 0.519 µM (active). Also, the GI50 in assay [7] is 0.826 µM (active); in assay [8], 0.533 µM (active); in assay [9], 1.77 µM (inactive); in assay [10], 1.62 µM (inactive); in [11], 0.301 µM (active); in assay [12], 0.83 µM (active). In addition, the GI50 is 1.39 µM (inactive) in assay [13]; 1.22 µM (inactive) in assay [14]; 1.15 µM (inactive) in assay [15]; 1.71 µM (inactive) in assay [16]; 0.762 µM (active) in [17]; 0.962 µM (active) in assay [18]. For the same compound, the 50% growth inhibitory concentration (GI50) in [19] was 0.452 µM (active).

For `CCCCN(CCCC)C(=O)C(=O)C(C(=O)C(=O)OC)c1nc2ccccc2o1` (centres undefined), the GI50 is > 100 µM (inactive) in assay [1]; > 100 µM (inactive) in assay [2]; > 100 µM (inactive) in assay [3]; > 100 µM (inactive) in [4]; > 100 µM (inactive) in assay [5]; 44.8 µM (inactive) in assay [6]. For the same compound, the GI50 in assay [7] was 69.3 µM (inactive); in assay [8], 90.6 µM (inactive); in assay [9], 78.5 µM (inactive); in [10] it was 50.8 µM (inactive); in assay [11] it was 67.9 µM (inactive); in [12], > 100 µM (inactive). Also, the GI50 was > 100 µM (inactive) in assay [13]; > 100 µM (inactive) in [14]; > 100 µM (inactive) in [16]; 17.5 µM (inactive) in [17]; > 100 µM (inactive) in assay [18]; > 100 µM (inactive) in [19].

As for `Cn1c2ccccc2c(=O)c2c([N+](=O)[O-])ccc(NCCN)c21`, the GI50 in assay [1] was 16.5 µM (inactive); in assay [2], 6.76 µM (inactive); in assay [3], 12.2 µM (inactive); in assay [4], 13.3 µM (inactive); in [5], 8.24 µM (inactive); in [7], 4.17 µM (inactive). Besides, the GI50 in assay [8] was 12.8 µM (inactive); in assay [9], 13.8 µM (inactive); in assay [10], 12.3 µM (inactive); in assay [11], 3.73 µM (inactive); in assay [12], 5.14 µM (inactive); in assay [13], 14 µM (inactive). The GI50 was 13.8 µM (inactive) in [14]; 14.9 µM (inactive) in assay [15]; 12.1 µM (inactive) in [16]; 9.62 µM (inactive) in assay [17]; 11.3 µM (inactive) in [18]; 4.47 µM (inactive) in [19].

With `CSC(=S)N(C)c1nc(N(C)C)s[s+]1`, the GI50 in assay [1] was 44.4 µM (inactive); in [2], > 100 µM (inactive); in [3], > 100 µM (inactive); in assay [4], > 100 µM (inactive); in assay [5] it was > 100 µM (inactive); in [7] it was 65.2 µM (inactive). Also, the GI50 in [8], in [10], in assay [11], in [12], in [13] and in assay [14] was > 100 µM (inactive) throughout. The GI50 in assay [15], in assay [16], in assay [17], in assay [18] and in assay [19] was > 100 µM (inactive) in each case.

On to `CC1(C)C(=O)/C=C\C(=O)C(C)(C)C2=CC=C(O2)C(C)(C)C(=O)/C=C\C(=O)C(C)(C)C2=CC=C1O2`, for which the GI50 in assay [1], in [2], in [3], in assay [4], in assay [6] and in assay [7] was > 100 µM (inactive) throughout. For the same compound, the GI50 in [8], in assay [9], in assay [10], in [11], in [12] and in assay [14] was > 100 µM (inactive) throughout. Moreover, the GI50 in assay [17], in [18] and in assay [19] was > 100 µM (inactive) in each case.

As to `C/N=C(\NC(=S)N(C)C)N(C)C`, the GI50 in assay [1], in [2], in [3], in assay [4], in assay [5] and in [7] was > 100 µM (inactive) in each case. Besides, the GI50 in assay [8], in [10], in assay [11], in assay [12], in assay [13] and in assay [14] was > 100 µM (inactive) throughout. Also, the GI50 in assay [15], in [16], in assay [17], in [18] and in assay [19] was > 100 µM (inactive) in each case.

Regarding `O=C1/C(=C/c2ccc(C(=O)O)cc2)CNC/C1=C\c1ccc(C(=O)O)cc1`, the GI50 in [1], in assay [2], in [3], in [4], in [5] and in assay [7] was > 100 µM (inactive) in each case. Also, the GI50 in assay [8], in assay [9], in assay [10], in assay [11], in [12] and in [13] was > 100 µM (inactive) each time. Moreover, the GI50 in [14], in assay [15], in [16], in assay [17], in [18] and in [19] was > 100 µM (inactive) each time.

In the case of `COC1=CC(=O)C2C(C1=O)C(c1ccc(OC)c(OC)c1)[C@H]2C` (some centres undefined), the GI50 in assay [1] was > 100 µM (inactive); in [2], 20 µM (inactive); in [3], 16.6 µM (inactive); in assay [4], 20.7 µM (inactive); in [5] it was > 100 µM (inactive); in [6], 22.9 µM (inactive). Moreover, the GI50 in assay [7] was 20.5 µM (inactive); in [8], > 100 µM (inactive); in [9], 19.6 µM (inactive); in assay [10] it was > 100 µM (inactive); in [11], 18 µM (inactive); in [13] it was 19 µM (inactive). For the same compound, the GI50 is > 100 µM (inactive) in assay [14]; > 100 µM (inactive) in assay [15]; > 100 µM (inactive) in [16]; 19.7 µM (inactive) in assay [17]; > 100 µM (inactive) in assay [18]; 31.8 µM (inactive) in [19].

`CN1CCC(c2c(O)cc(O)c3c(=O)cc(-c4ccccc4Cl)oc23)C(O)C1` (centres undefined): the 50% growth inhibitory concentration (GI50) is 0.117 µM (active) in [1]; 0.0194 µM (active) in assay [2]; 0.124 µM (active) in assay [3]; 0.102 µM (active) in assay [4]; 0.0929 µM (active) in [5]; 0.0173 µM (active) in assay [6]. Also, the GI50 in assay [7] was 0.0197 µM (active); in [8], 0.0615 µM (active); in [10], 0.0735 µM (active); in assay [11], < 0.01 µM (active); in [12], 0.143 µM (active); in [13] it was 0.111 µM (active). Moreover, the GI50 in assay [14] is 0.128 µM (active); in [15] it was 0.0289 µM (active); in assay [16] it was 0.0219 µM (active); in assay [17], < 0.0149 µM (active); in assay [18], 0.0467 µM (active); in assay [19], 0.156 µM (active).
